IC50 data for eleven compounds are collected here from US9403827B2, “Substituted purinone compounds” (NOVARTIS AG, priority 2013, dated 2016).

The experiment has as its target human MDM2 protein (amino acids 2-188) (Homo sapiens (Human), UniProt Q00987). In words: TR-FRET p53-MDM2 Assay 2 (modified: 0.1 nM MDM2). The experiment is classed as binding. The note with it: 0.1 nM MDM2, 0.1 nM Europium labeled streptavidin, Tecan genios Pro reader. The method, then: Time Resolved Fluorescence Energy Transfer (TR-FRET) Assay
The inhibition of p53-MDM2 and p53-MDM4 interactions is measured by time resolved fluorescence energy transfer (TR-FRET). Fluorescence energy transfer (or Foerster resonance energy transfer) describes an energy transfer between donor and acceptor fluorescent molecules. For this assay, human MDM2 protein (amino acids 2-188) and human MDM4 protein (amino acids 2-185), tagged with a C-terminal biotin moiety, are used in combination with a Europium labeled streptavidin (Perkin Elmer, Inc., Waltham, Mass., USA) serving as the donor fluorophore. The p53 derived, Cy5 labeled peptide Cy5-TFSDLWKLL (p53 aa18-26) is the energy acceptor. Upon excitation of the donor molecule at 340 nm, binding interaction between MDM2 or MDM4 and the p53 peptide induces energy transfer and enhanced response at the acceptor emission wavelength at 665 nm.
Disruption of the formation of the p53-MDM2 or p53-MDM4 complex due to an inhibitor molecule binding to the p53 binding site of MDM2 or MDM4 results in increased donor emission at 620 nm. The ratiometric FRET assay readout is calculated from the raw data of the two distinct fluorescence signals measured in time resolved mode (fluorescence 665 nm/fluorescence 620 nm×1000).
The test is performed in white 384-well plates (Greiner Bio-One, reference 781207) in a total volume of 60 μL by adding 1 μL of compounds tested at different concentrations diluted in 100% DMSO (1.7% final DMSO concentration) in reaction buffer (PBS, 125 mM NaCl, 0.001% Novexin (consists of carbohydrate polymers), designed to increase the solubility and stability of proteins; Expedeon Ltd., Cambridgeshire, United Kingdom), 0.01% Gelatin, 0.01% 0.2%, Pluronic F-127 (block copolymer from ethylenoxide and propyleneoxide), 1 mM DTT). After addition of 1.25 nM MDM2-biotinylated or 2.5 nM MDM4-biotinylated (internal preparations, both MDM2 and MDM4 are biotinylated at the C-terminal of the peptide construct), and 0.625 nM Europium labeled streptavidin (Perkin Elmer), the solution is pre-incubated for 15 minutes at room temperature, then 10 nM Cy5-p53 peptide (internal preparation, the Cy5 dye is directly bound to the N-terminal part of p53 peptide construct) is added before an incubation at room temperature for 15 minutes prior to reading the plate. For measurement of samples, a Victor II microplate reader (Perkin Elmer) is used with the following settings: Excitation 340 nm, Emission Donor 620 nm and Emission Acceptor 665 nm. IC50 values are calculated by curve fitting using XLfit. If not specified, reagents are purchased from Sigma-Aldrich Chemie GmBH, Buchs, Switzerland.
This assay was used to evaluate compounds displaying inhibition of p53-MDM2 interaction and p53-MDM4 interaction at IC50s of 0.005 to 50 μM (p53-MDM2 Assay 1 and p53-MDM4 Assay 1, respectively). For selected compounds displaying IC50s between […] on MDM2, a slightly modified assay is used with the following adaptations: 0.1 nM MDM2, 0.1 nM Europium labeled streptavidin and Tecan genios Pro is used as a microplate reader for the fluorescence measurements (p53-MDM2 Assay 2).

Chain of human MDM2 protein (amino acids 2-188) (Q00987 2-188): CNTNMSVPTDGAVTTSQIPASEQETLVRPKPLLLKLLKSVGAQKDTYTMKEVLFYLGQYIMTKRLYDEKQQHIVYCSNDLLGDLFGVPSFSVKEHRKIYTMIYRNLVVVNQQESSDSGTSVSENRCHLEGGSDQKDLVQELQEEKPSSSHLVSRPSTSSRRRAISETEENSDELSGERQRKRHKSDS

Regarding `COc1ccc(F)cc1-c1nc2c(n1C(C)C)C(c1ccc(Cl)cc1C)N(c1cc(Cl)ccc1C)C(=O)N2` (centres unmarked) [Example 7, 1-(5-Chloro-2-methyl-phenyl)-6-(4-chloro-2-methyl-phenyl)-8-(5-fluoro-2-methoxy-phenyl)-7-isopropyl-1,3,6,7-tetrahydro-purin-2-one], the IC50 came out at 0.531 nM. The value for `COc1ccc(C(=O)NCCO)cc1-c1nc2c(n1C(C)C)C(c1ccc(Cl)cc1C)N(c1cc(Cl)ccc1C)C(=O)N2` (centres unmarked) [Example 8, 3-[1-(5-Chloro-2-methyl-phenyl)-6-(4-chloro-2-methyl-phenyl)-7-isopropyl-2-oxo-2,3,6,7-tetrahydro-1H-purin-8-yl]-N-(2-hydroxy-ethyl)-4-methoxy-benzamide] was 0.447 nM; that for `CNC(=O)c1ccc(OC)c(-c2nc3c(n2C(C)C)C(c2ccc(Cl)cc2C)N(c2cc(Cl)ccc2C)C(=O)N3)c1` (centres unmarked) [Example 9, 3-[1-(5-Chloro-2-methyl-phenyl)-6-(4-chloro-2-methyl-phenyl)-7-isopropyl-2-oxo-2,3,6,7-tetrahydro-1H-purin-8-yl]-4-methoxy-N-methyl-benzamide] was 0.21 nM; that for `COc1ccc(C(=O)N(C)C)cc1-c1nc2c(n1C(C)C)C(c1ccc(Cl)cc1C)N(c1cc(Cl)ccc1C)C(=O)N2` (centres unmarked) [Example 10, 3-[1-(5-Chloro-2-methyl-phenyl)-6-(4-chloro-2-methyl-phenyl)-7-isopropyl-2-oxo-2,3,6,7-tetrahydro-1H-purin-8-yl]-4-methoxy-N,N-dimethyl-benzamide] was 0.432 nM. For `COc1ccc(CO)cc1-c1nc2c(n1C(C)C)C(c1ccc(Cl)cc1C)N(c1cc(Cl)ccc1C)C(=O)N2` (centres unmarked) [Example 11, 1-(5-Chloro-2-methyl-phenyl)-6-(4-chloro-2-methyl-phenyl)-8-(5-hydroxymethyl-2-methoxy-phenyl)-7-isopropyl-1,3,6,7-tetrahydro-purin-2-one], the 50% inhibitory concentration (IC50) is 0.371 nM.

On to `COc1ccc(C#N)cc1-c1nc2c(n1C(C)C)C(c1ccc(Cl)cc1C)N(c1cc(Cl)ccc1C)C(=O)N2` (centres unmarked) [Example 12, 3-[1-(5-Chloro-2-methyl-phenyl)-6-(4-chloro-2-methyl-phenyl)-7-isopropyl-2-oxo-2,3,6,7-tetrahydro-1H-purin-8-yl]-4-methoxy-benzonitrile], for which the IC50 came to 0.414 nM. For the compound `COc1ccccc1-c1nc2c(n1C(C)C)C(c1ccc(C#N)cc1)N(c1cc(Cl)ccc1C)C(=O)N2` (centres unmarked) [Example 13, 4-[1-(5-Chloro-2-methyl-phenyl)-7-isopropyl-8-(2-methoxy-phenyl)-2-oxo-2,3,6,7-tetrahydro-1H-purin-6-yl]-benzonitrile], the IC50 worked out at 0.724 nM. For the compound `COc1ccccc1-c1nc2c(n1C(C)C)C(c1ccc(C#N)cc1)N(c1cccc(Cl)c1F)C(=O)N2` (centres unmarked) [Example 14, 4-(1-(3-Chloro-2-fluorophenyl)-7-isopropyl-8-(2-methoxyphenyl)-2-oxo-2,3,6,7-tetrahydro-1H-purin-6-yl)benzonitrile], the IC50 worked out at 0.473 nM. As to `COc1ncc(-c2nc3c(n2C(C)C)C(c2ccc(Cl)c(F)c2)N(c2ccc(F)c(Cl)c2)C(=O)N3)c(OC)n1` (centres unmarked) [Example 15, 6-(4-Chloro-3-fluorophenyl)-1-(3-chloro-4-fluorophenyl)-8-(2,4-dimethoxypyrimidin-5-yl)-7-isopropyl-6,7-dihydro-1H-purin-2(3H)-one], the 50% inhibitory concentration (IC50) was 0.451 nM. With `COc1ncc(-c2nc3c(n2C(C)C)C(c2ccc(Cl)cc2C)N(c2cc(Cl)c(=O)n(C)c2)C(=O)N3)c(OC)n1` (centres unmarked) [Example 16, 1-(5-Chloro-1-methyl-6-oxo-1,6-dihydro-pyridin-3-yl)-6-(4-chloro-2-methyl-phenyl)-8-(2,4-dimethoxy-pyrimidin-5-yl)-7-isopropyl-1,3,6,7-tetrahydro-purin-2-one], the IC50 was 3.11 nM. Take `COc1ncc(-c2nc3c(n2C(C)C)C(c2ccc(Cl)c(F)c2)N(c2cc(Cl)cn(C)c2=O)C(=O)N3)c(OC)n1` (centres unmarked) [Example 17, 1-(5-Chloro-1-methyl-2-oxo-1,2-dihydropyridin-3-yl)-6-(4-chloro-3-fluorophenyl)-8-(2,4-dimethoxypyrimidin-5-yl)-7-isopropyl-6,7-dihydro-1H-purin-2(3H)-one]: the IC50 was 1.67 nM.
